Molecular target: hERG (human ether-a-go-go-related gene) potassium channel (Homo sapiens, UniProt Q12809)
Assay: QPatch automated patch-clamp hERG activator 4-concentration EC50 assay
Settings: increase of hERG tail current amplitude at 7 second (TL7); 10 uM; hERG stably expressed in CHO cells
From the text: A patch-clamp assay on the QPatch© automated patch clamp system was employed to assesses whether compounds functionally enhance the cardiac delayed rectifier hERG (human ether-a-go-go-related gene) potassium channel. The assay measures electric the current passing through hERG channels that are heterologously expressed in a stable Chinese hamster ovary (CHO) cell line. Channels are opened by a hERG-specific voltage protocol and the compound effect is directly characterized by the activation of the hERG current. EC50 values are obtained from fitting 4-concentration dose response curves (1.1, 3.3, 10 & 30 uM) in triplicates at 4 different sections of the voltage protocol (steady state current amplitude at +10 mV, at +30 mV, peak tail current amplitude and tail current amplitude at 7 second).

hERG (human ether-a-go-go-related gene) potassium channel, sequence (Q12809 whole entry): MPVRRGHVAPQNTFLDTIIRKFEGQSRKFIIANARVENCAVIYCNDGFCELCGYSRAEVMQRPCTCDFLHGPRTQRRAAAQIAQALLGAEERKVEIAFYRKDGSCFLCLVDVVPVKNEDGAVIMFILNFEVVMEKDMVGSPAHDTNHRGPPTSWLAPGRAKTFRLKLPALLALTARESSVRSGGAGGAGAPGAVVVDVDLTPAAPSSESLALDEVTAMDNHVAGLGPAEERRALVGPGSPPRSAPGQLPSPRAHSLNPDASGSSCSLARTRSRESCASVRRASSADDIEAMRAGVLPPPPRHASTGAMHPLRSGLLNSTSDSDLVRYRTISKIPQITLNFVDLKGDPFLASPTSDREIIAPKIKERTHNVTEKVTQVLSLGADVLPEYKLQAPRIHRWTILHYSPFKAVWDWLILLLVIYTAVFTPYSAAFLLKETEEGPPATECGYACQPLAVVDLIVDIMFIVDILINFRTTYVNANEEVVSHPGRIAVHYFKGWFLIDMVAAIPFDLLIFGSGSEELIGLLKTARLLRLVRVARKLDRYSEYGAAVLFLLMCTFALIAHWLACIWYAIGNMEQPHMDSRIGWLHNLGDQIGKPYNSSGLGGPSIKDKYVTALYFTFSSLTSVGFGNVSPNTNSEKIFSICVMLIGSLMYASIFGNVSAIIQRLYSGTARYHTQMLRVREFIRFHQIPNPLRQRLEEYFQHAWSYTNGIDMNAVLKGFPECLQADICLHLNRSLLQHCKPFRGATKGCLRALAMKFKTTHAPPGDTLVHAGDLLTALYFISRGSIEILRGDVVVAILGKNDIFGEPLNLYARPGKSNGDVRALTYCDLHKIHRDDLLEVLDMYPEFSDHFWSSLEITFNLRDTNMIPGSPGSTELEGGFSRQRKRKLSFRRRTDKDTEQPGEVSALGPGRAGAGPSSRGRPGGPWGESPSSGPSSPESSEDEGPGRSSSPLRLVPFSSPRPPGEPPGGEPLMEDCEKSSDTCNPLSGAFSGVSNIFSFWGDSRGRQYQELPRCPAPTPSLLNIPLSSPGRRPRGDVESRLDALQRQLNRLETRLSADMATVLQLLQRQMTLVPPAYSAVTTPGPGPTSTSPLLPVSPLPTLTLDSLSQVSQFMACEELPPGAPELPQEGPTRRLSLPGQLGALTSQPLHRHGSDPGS

Going from `CCCc1ccc(NCc2ccc3oc(-c4nnn[nH]4)c(C)c3c2)cc1C(F)(F)F` [Example 82] to `CCCc1ccc(NCc2cc3cc(-c4nnn[nH]4)oc3cc2F)cc1C(F)(F)F` [Example 128], the “% change@TL7@10 uM” value rises from 39% to 142%.

First: CC(Nc1ccc2c(c1)OC(F)(F)O2)c1ccc2oc(-c3nnn[nH]3)cc2c1 (stereo not shown) [Example 83]
Second: CCCc1ccc(NC(C)c2ccc3oc(-c4nnn[nH]4)cc3c2)cc1Cl (stereo not shown) [Example 84]
The “% change@TL7@10 uM” value of the first is higher: 36% for the first, 29% for the second.

Going from `O=C(O)c1cc2ccc(CNc3cc(Br)c(Br)c(Br)c3)cc2o1` [Example 85] to `O=C(O)c1cc2ccc(CNc3cc(F)c(F)c(Br)c3)cc2o1` [Example 106], the “% change@TL7@10 uM” value falls from 397% to 90%.

First: O=C(O)c1cc2ccc(CNc3cc(Cl)c(Cl)c(Cl)c3)cc2o1 [Example 86]
Second: O=C(O)c1cc2cc(CNc3cc(Cl)c(Cl)c(Cl)c3)ccc2o1 [Example 120]
The “% change@TL7@10 uM” value of the first is higher: 381% for the first, 282% for the second.

First: O=C(O)c1cc2ccc(CNc3ccc(SC(F)(F)F)c(Cl)c3)cc2o1 [Example 87]
Second: O=C(O)c1cc2ccc(CNc3ccc(OC(F)(F)F)c(Cl)c3)cc2o1 [Example 88]
The “% change@TL7@10 uM” value of the first is higher: 326% for the first, 274% for the second.

Compared with `O=C(O)c1cc2ccc(CNc3ccc4c(c3)OC(F)(F)O4)cc2o1` [Example 89], `O=C(O)c1cc2ccc(CNc3ccc4c(c3)OC(F)(F)C(F)(F)O4)cc2o1` [Example 94] is lower in “% change@TL7@10 uM” value: 270% for the first, 194% for the second.

Compared with `O=C(O)c1cc2ccc(CNc3ccc(OC(F)(F)F)c(Br)c3)cc2o1` [Example 90], `Cc1cc(NCc2ccc3cc(C(=O)O)oc3c2)ccc1OC(F)(F)F` [Example 102] is lower in “% change@TL7@10 uM” value: 247% for the first, 153% for the second.

First: O=C(O)c1cc2ccc(CNc3ccc(SC(F)(F)F)c(C(F)(F)F)c3)cc2o1 [Example 91]
Second: O=C(O)c1cc2ccc(CNc3ccc(C(F)(F)F)c(C(F)(F)F)c3)cc2o1 [Example 101]
The “% change@TL7@10 uM” value of the first is higher: 226% for the first, 156% for the second.

Going from `O=C(O)c1cc2ccc(CNc3ccc(OC(F)(F)F)c(C(F)(F)F)c3)cc2o1` [Example 92] to `O=C(O)c1cc2ccc(CNc3ccc(OCC(F)(F)F)c(C(F)(F)F)c3)cc2o1` [Example 118], the “% change@TL7@10 uM” value falls from 215% to 27%.

Going from `CCCc1ccc(NCc2ccc3cc(C(=O)O)oc3c2)cc1Cl` [Example 93] to `CCCc1ccc(NCc2ccc3oc(C(=O)O)cc3c2)cc1Cl` [Example 121], the “% change@TL7@10 uM” value falls from 212% to 210%.

First: CCCc1ccc(NCc2ccc3cc(C(=O)O)oc3c2)cc1C(F)(F)F [Example 95]
Second: CCCc1ccc(NCc2ccc3oc(C(=O)O)cc3c2)cc1C(F)(F)F [Example 122]
The “% change@TL7@10 uM” value of the first is higher: 193% for the first, 184% for the second.

Compared with `CSc1ccc(NCc2ccc3cc(C(=O)O)oc3c2)cc1C(F)(F)F` [Example 96], `CCc1ccc(NCc2ccc3cc(C(=O)O)oc3c2)cc1C(F)(F)F` [Example 100] is lower in “% change@TL7@10 uM” value: 185% for the first, 156% for the second.

Compared with `CSc1cccc(NCc2ccc3cc(C(=O)O)oc3c2)c1` [Example 97], `COc1ccc(NCc2ccc3cc(C(=O)O)oc3c2)cc1Cl` [Example 115] is lower in “% change@TL7@10 uM” value: 159% for the first, 41% for the second.

Going from `O=C(O)c1cc2ccc(CNc3ccc(N4CCOCC4)c(Br)c3)cc2o1` [Example 98] to `O=C(O)c1cc2ccc(CNc3cccc(N4CCOCC4)c3)cc2o1` [Example 109], the “% change@TL7@10 uM” value falls from 158% to 81%.

Going from `O=C(O)c1cc2ccc(CNc3ccc(S(F)(F)(F)(F)F)cc3)cc2o1` [Example 99] to `O=C(O)c1cc2ccc(CNc3ccc(SC(F)(F)F)cc3)cc2o1` [Example 113], the “% change@TL7@10 uM” value falls from 157% to 53%.

First: O=C(O)c1cc2ccc(CNc3ccc(C(=O)C(F)(F)F)cc3)cc2o1 [Example 103]
Second: COc1ccc(NCc2ccc3cc(C(=O)O)oc3c2)cc1C(F)(F)F [Example 117]
The “% change@TL7@10 uM” value of the first is higher: 112% for the first, 28% for the second.

First: O=C(O)c1cc2ccc(CNc3ccc(OC(F)(F)F)c(OC(F)(F)F)c3)cc2o1 [Example 104]
Second: O=C(O)c1cc2ccc(CNc3ccc(OCC(F)(F)F)c(Cl)c3)cc2o1 [Example 108]
The “% change@TL7@10 uM” value of the first is higher: 111% for the first, 82% for the second.

Compared with `O=C(O)c1cc2ccc(CNc3ccc4c(c3)OCCO4)cc2o1` [Example 105], `Cc1nc2cc(NCc3ccc4cc(C(=O)O)oc4c3)ccc2s1` [Example 114] is lower in “% change@TL7@10 uM” value: 105% for the first, 45% for the second.

Compared with `O=C(O)c1oc2cc(CNc3ccc(OC(F)(F)F)c(Br)c3)ccc2c1C(F)(F)F` [Example 107], `CCCc1ccc(NCc2ccc3c(C(F)(F)F)c(C(=O)O)oc3c2)cc1C(F)(F)F` [Example 111] is lower in “% change@TL7@10 uM” value: 85% for the first, 65% for the second.

First: O=C(O)c1cc2ccc(CNc3cc(Cl)c(F)c(C(F)(F)F)c3)cc2o1 [Example 110]
Second: O=C(O)c1cc2ccc(CNc3cc(C(F)(F)F)cc(C(F)(F)F)c3)cc2o1 [Example 116]
The “% change@TL7@10 uM” value of the first is higher: 76% for the first, 31% for the second.

Going from `O=C(O)c1cc2ccc(CNc3ccc(C(F)(F)F)cn3)cc2o1` [Example 112] to `CCc1ccc(NCc2ccc3oc(C(=O)O)cc3c2)cc1C(F)(F)F` [Example 124], the “% change@TL7@10 uM” value rises from 53% to 167%.

Going from `O=C(O)c1cc2ccc(CNc3cc(Cl)nc(Cl)c3)cc2o1` [Example 119] to `O=C(O)c1cc2cc(CNc3ccc(Cl)c(Cl)c3)ccc2o1` [Example 123], the “% change@TL7@10 uM” value rises from 22% to 183%.

Compared with `CCCc1cc(NCc2ccc3oc(C(=O)O)cc3c2)ccc1C(F)(F)F` [Example 125], `CCCc1cc(NCc2ccc3oc(C(=O)O)cc3c2)ccc1Cl` [Example 126] is lower in “% change@TL7@10 uM” value: 138% for the first, 64% for the second.

Going from `Fc1cc2oc(-c3nnn[nH]3)cc2cc1CNc1ccc(OCC(F)(F)F)c(C(F)(F)F)c1` [Example 127] to `Fc1cc2cc(-c3nnn[nH]3)oc2cc1CNc1ccc(OCC(F)(F)F)c(C(F)(F)F)c1` [Example 168], the “% change@TL7@10 uM” value falls from 268% to 240%.

Compared with `Fc1cc2oc(-c3nnn[nH]3)cc2cc1CNc1ccc(Cl)c(Cl)c1` [Example 129], `Clc1ccc(NCc2cc3cc(-c4nnn[nH]4)oc3cc2Cl)cc1Cl` [Example 139] is lower in “% change@TL7@10 uM” value: 154% for the first, 112% for the second.

First: Fc1cc2oc(-c3nnn[nH]3)cc2cc1CNc1ccc(OC(F)(F)F)c(C(F)(F)F)c1 [Example 130]
Second: Fc1cc2cc(-c3nnn[nH]3)oc2cc1CNc1ccc(C(F)(F)F)c(C(F)(F)F)c1 [Example 158]
The “% change@TL7@10 uM” value of the first is lower: 220% for the first, 277% for the second.

Compared with `Fc1cc2oc(-c3nnn[nH]3)cc2cc1CNc1cc(C(F)(F)F)c(Br)c(C(F)(F)F)c1` [Example 133], `Fc1cc2cc(-c3nnn[nH]3)oc2cc1CNc1cc(C(F)(F)F)c(Br)c(C(F)(F)F)c1` [Example 159] is higher in “% change@TL7@10 uM” value: 326% for the first, 388% for the second.

First: FC(F)Oc1ccc(NCc2cc3cc(-c4nnn[nH]4)oc3cc2Cl)cc1C(F)(F)F [Example 134]
Second: FC(F)Oc1ccc(NCc2cc3oc(-c4nnn[nH]4)cc3cc2Br)cc1C(F)(F)F [Example 156]
The “% change@TL7@10 uM” value of the first is lower: 217% for the first, 356% for the second.

First: FC(F)(F)COc1ccc(NCc2cc3cc(-c4nnn[nH]4)oc3cc2Cl)cc1C(F)(F)F [Example 135]
Second: FC(F)(F)COc1ccc(NCc2cc3oc(-c4nnn[nH]4)cc3cc2Br)cc1C(F)(F)F [Example 164]
The “% change@TL7@10 uM” value of the first is lower: 181% for the first, 308% for the second.

First: FC(F)(F)c1cc(NCc2cc3cc(-c4nnn[nH]4)oc3cc2Cl)cc(C(F)(F)F)c1Br [Example 137]
Second: Fc1c(CNc2cc(C(F)(F)F)c(Br)c(C(F)(F)F)c2)ccc2oc(-c3nnn[nH]3)cc12 [Example 143]
The “% change@TL7@10 uM” value of the first is lower: 166% for the first, 193% for the second.

First: FC(F)(F)c1ccc(NCc2cc3cc(-c4nnn[nH]4)oc3cc2Cl)cc1Cl [Example 138]
Second: Fc1cc2cc(-c3nnn[nH]3)oc2cc1CNc1ccc(Cl)c(C(F)(F)F)c1 [Example 150]
The “% change@TL7@10 uM” value of the first is lower: 196% for the first, 218% for the second.

First: Fc1c(CNc2ccc(OC(F)(F)F)c(Br)c2)ccc2oc(-c3nnn[nH]3)cc12 [Example 140]
Second: Fc1c(CNc2ccc(OCC(F)(F)F)c(C(F)(F)F)c2)ccc2oc(-c3nnn[nH]3)cc12 [Example 142]
The “% change@TL7@10 uM” value of the first is higher: 290% for the first, 188% for the second.

First: Fc1cc(CNc2ccc(OCC(F)(F)F)c(C(F)(F)F)c2)cc2cc(-c3nnn[nH]3)oc12 [Example 147]
Second: Fc1c(CNc2ccc(OCC(F)(F)F)c(C(F)(F)F)c2)ccc2cc(-c3nnn[nH]3)oc12 [Example 154]
The “% change@TL7@10 uM” value of the first is lower: 151% for the first, 325% for the second.

Compared with `FC(F)(F)Oc1ccc(NCc2ccc3oc(-c4nn[nH]n4)cc3c2)cc1Br` [Example 149], `CCOc1ccc(NCc2ccc3cc(-c4nn[nH]n4)oc3c2)cc1Br` [Example 172] is lower in “% change@TL7@10 uM” value: 335% for the first, 284% for the second.

Going from `Fc1c(CNc2cc(C(F)(F)F)c(Br)c(C(F)(F)F)c2)ccc2cc(-c3nnn[nH]3)oc12` [Example 151] to `Cc1cc2cc(-c3nnn[nH]3)oc2cc1CNc1ccc(OCC(F)(F)F)c(C(F)(F)F)c1` [Example 170], the “% change@TL7@10 uM” value falls from 308% to 299%.

Compared with `COc1cc2cc(-c3nnn[nH]3)oc2cc1CNc1ccc(OCC(F)(F)F)c(C(F)(F)F)c1` [Example 153], `CCOc1ccc(NCc2cc3oc(-c4nnn[nH]4)cc3cc2F)cc1C(F)(F)F` [Example 161] is lower in “% change@TL7@10 uM” value: 381% for the first, 288% for the second.

First: N#CCOc1ccc(NCc2cc3oc(-c4nnn[nH]4)cc3cc2Br)cc1C(F)(F)F [Example 155]
Second: CC(C)Oc1ccc(NCc2cc3oc(-c4nnn[nH]4)cc3cc2Br)cc1C(F)(F)F [Example 173]
The “% change@TL7@10 uM” value of the first is higher: 370% for the first, 278% for the second.

Going from `FC(F)COc1ccc(NCc2cc3oc(-c4nnn[nH]4)cc3cc2Cl)cc1C(F)(F)F` [Example 157] to `Fc1cc2cc(-c3nnn[nH]3)oc2cc1CNc1ccc(OCC(F)F)c(C(F)(F)F)c1` [Example 162], the “% change@TL7@10 uM” value rises from 350% to 372%.

Going from `CC(C)c1ccc(NCc2cc3oc(-c4nnn[nH]4)cc3cc2F)cc1Br` [Example 160] to `CC(C)Oc1ccc(NCc2cc3oc(-c4nnn[nH]4)cc3cc2F)cc1C(F)(F)F` [Example 163], the “% change@TL7@10 uM” value falls from 347% to 250%.

`CC(C)Oc1ccc(NCc2ccc3cc(-c4nnn[nH]4)oc3c2Cl)cc1C(F)(F)F` [Example 171] was tested, and the “% change@TL7@10 uM” value was 291%.

Reference: patent US9255093B2, “Polycyclic HERG activators” (NOVARTIS AG, priority 2014, dated 2016)
